# Reference: PubChem BioAssay AID1259407 (Chemical Carcinogenesis Research Information System (CCRIS), 2018)
# Entries after “also recorded” stand apart in the source; their conditions may differ. Calls of active or inactive are those of the source. How the calls were made is not given here.
# System: CCRIS mutagenicity, Ames/micronucleus/aberration tests
# Experiment: CCRIS mutagenicity studies
# [1] = Test System: AMES SALMONELLA TYPHIMURIUM, Strain/Indicator: TA98, Metabolic Activation: NONE, Method: PREINCUBATION
# [2] = Test System: AMES SALMONELLA TYPHIMURIUM, Strain/Indicator: TA100, Metabolic Activation: NONE, Method: PREINCUBATION
# [3] = Test System: AMES SALMONELLA TYPHIMURIUM, Strain/Indicator: TA1535, Metabolic Activation: NONE, Method: PREINCUBATION
# [4] = Test System: AMES SALMONELLA TYPHIMURIUM, Strain/Indicator: TA1537, Metabolic Activation: NONE, Method: PREINCUBATION
smiles,measurement,setting,value
CC(C)(C)CC(C)(C)c1ccc(O)cc1,mutagenic call,"End Point: In vitro chromosomal aberrations, Test System: Chinese hamster lung (CHL/IU) cells, Metabolic Activation: None",inactive; negative. toxic at 0.04 mg/ml; also recorded: inactive; negative. toxic at 0.030 and 0.036 mg/ml
same,mutagenic call,"End Point: In vitro chromosomal aberrations, Test System: Chinese hamster lung (CHL/IU) cells, Metabolic Activation: Rat, Liver, S9, Phenobarbital and 5,6-benzoflavone",active; positive (structural changes and ploidy). toxic at 0.06 mg/ml.
same,mutagenic call,[1],inactive; negative
same,mutagenic call,"Test System: AMES SALMONELLA TYPHIMURIUM, Strain/Indicator: TA98, Metabolic Activation: RAT LIVER S-9, PHENOBARBITAL AND BETA-NAPHTHOVLAVONE, Method: PREINCUBATION",inactive; negative
same,mutagenic call,[2],inactive; negative
same,mutagenic call,"Test System: AMES SALMONELLA TYPHIMURIUM, Strain/Indicator: TA100, Metabolic Activation: RAT LIVER S-9, PHENOBARBITAL AND BETA-NAPHTHOFLAVONE, Method: PREINCUBATION",inactive; negative
same,mutagenic call,"Test System: AMES SALMONELLA TYPHIMURIUM, Strain/Indicator: TA102, Metabolic Activation: NONE, Method: PREINCUBATION",inactive; negative
same,mutagenic call,"Test System: AMES SALMONELLA TYPHIMURIUM, Strain/Indicator: TA102, Metabolic Activation: RAT LIVER S-9, PHENOBARBITAL AND BETA-NAPHTHOFLAVONE, Method: PREINCUBATION",inactive; negative
same,mutagenic call,"Test System: AMES SALMONELLA TYPHIMURIUM, Strain/Indicator: TA104, Metabolic Activation: NONE, Method: PREINCUBATION",inactive; negative
same,mutagenic call,"Test System: AMES SALMONELLA TYPHIMURIUM, Strain/Indicator: TA104, Metabolic Activation: RAT LIVER S-9, PHENOBARBITAL AND BETA-NAPHTHOFLAVONE, Method: PREINCUBATION",inactive; negative
same,mutagenic call,[3],inactive; negative
same,mutagenic call,"Test System: AMES SALMONELLA TYPHIMURIUM, Strain/Indicator: TA1535, Metabolic Activation: RAT LIVER S-9, PHENOBARBITAL AND BETA-NAPHTHOFLAVONE, Method: PREINCUBATION",inactive; negative
same,mutagenic call,[4],inactive; negative
same,mutagenic call,"Test System: AMES SALMONELLA TYPHIMURIUM, Strain/Indicator: TA1537, Metabolic Activation: RAT LIVER S-9, PHENOBARBITAL AND BETA-NAPHTHOFLAVONE, Method: PREINCUBATION",inactive; negative
same,mutagenic call,"Test System: E. COLI, Strain/Indicator: WP2UVRA/PKM101, Metabolic Activation: NONE, Method: PREINCUBATION",inactive; negative
same,mutagenic call,"Test System: E. COLI, Strain/Indicator: WP2UVRA/PKM101, Metabolic Activation: RAT LIVER S-9, PHENOBARBITAL AND BETA-NAPHTHOFLAVONE, Method: PREINCUBATION",inactive; negative
same,mutagenic call,"Test System: E. COLI, Strain/Indicator: WP2UVRA, Metabolic Activation: NONE, Method: PREINCUBATION",inactive; negative
same,mutagenic call,"Test System: E. COLI, Strain/Indicator: WP2UVRA, Metabolic Activation: RAT LIVER S-9, PHENOBARBITAL AND BETA-NAPHTHOFLAVONE, Method: PREINCUBATION",inactive; negative
O=C1c2ccccc2C(=O)c2c1cc(O[C@H]1O[C@H](CO[C@@H]3OC[C@@H](O)[C@H](O)[C@H]3O)[C@@H](O)[C@H](O)[C@H]1O)c(CO)c2O,mutagenic call,"Test System: AMES SALMONELLA TYPHIMURIUM, Strain/Indicator: TA98, Metabolic Activation: NONE, Method: PREINCUBATION (PH 6.5 OR 7.4)",inactive; negative
same,mutagenic call,"Test System: AMES SALMONELLA TYPHIMURIUM, Strain/Indicator: TA98, Metabolic Activation: RAT, LIVER, S-9, SODIUM BARBITAL AND BETA-NAPHTHOFLAVONE, Method: PREINCUBATION (PH 6.5 OR 7.4)",inactive; negative
same,mutagenic call,"Test System: AMES SALMONELLA TYPHIMURIUM, Strain/Indicator: TA100, Metabolic Activation: NONE, Method: PREINCUBATION (PH 6.5 OR 7.4)",active; positive
same,mutagenic call,"Test System: AMES SALMONELLA TYPHIMURIUM, Strain/Indicator: TA100, Metabolic Activation: RAT, LIVER, S-9, SODIUM BARBITAL AND BETA-NAPHTHOFLAVONE, Method: PREINCUBATION",inactive; negative
C=C(C)C(=O)OCCCCCCCC,mutagenic call,"Test System: AMES SALMONELLA TYPHIMURIUM, Strain/Indicator: TA97, Metabolic Activation: HAMSTER, LIVER, S-9, AROCLOR 1254 (10 OR 30%), Method: PREINCUBATION",inactive; negative
same,mutagenic call,"Test System: AMES SALMONELLA TYPHIMURIUM, Strain/Indicator: TA97, Metabolic Activation: NONE, Method: PREINCUBATION",inactive; negative
same,mutagenic call,"Test System: AMES SALMONELLA TYPHIMURIUM, Strain/Indicator: TA97, Metabolic Activation: RAT, LIVER, S-9, AROCLOR 1254 (10 OR 30%), Method: PREINCUBATION",inactive; negative
same,mutagenic call,"Test System: AMES SALMONELLA TYPHIMURIUM, Strain/Indicator: TA98, Metabolic Activation: HAMSTER, LIVER, S-9, AROCLOR 1254 (10%), Method: PREINCUBATION",inactive; negative
same,mutagenic call,"Test System: AMES SALMONELLA TYPHIMURIUM, Strain/Indicator: TA98, Metabolic Activation: HAMSTER, LIVER, S-9, AROCLOR 1254 (30%), Method: PREINCUBATION",inactive; negative
same,mutagenic call,[1],inactive; negative
same,mutagenic call,"Test System: AMES SALMONELLA TYPHIMURIUM, Strain/Indicator: TA98, Metabolic Activation: RAT, LIVER, S-9, AROCLOR 1254 (10%), Method: PREINCUBATION",inactive; negative
same,mutagenic call,"Test System: AMES SALMONELLA TYPHIMURIUM, Strain/Indicator: TA98, Metabolic Activation: RAT, LIVER, S-9, AROCLOR 1254 (30%), Method: PREINCUBATION",inactive; negative
same,mutagenic call,"Test System: AMES SALMONELLA TYPHIMURIUM, Strain/Indicator: TA100, Metabolic Activation: HAMSTER, LIVER, S-9, AROCLOR 1254 (10 OR 30%), Method: PREINCUBATION",inactive; negative
same,mutagenic call,[2],inactive; negative
same,mutagenic call,"Test System: AMES SALMONELLA TYPHIMURIUM, Strain/Indicator: TA100, Metabolic Activation: RAT, LIVER, S-9, AROCLOR 1254 (10 OR 30%), Method: PREINCUBATION",inactive; negative
same,mutagenic call,"Test System: AMES SALMONELLA TYPHIMURIUM, Strain/Indicator: TA1535, Metabolic Activation: HAMSTER, LIVER, AROCLOR 1254 (10 OR 30%), Method: PREINCUBATION",inactive; negative
same,mutagenic call,[3],inactive; negative
same,mutagenic call,"Test System: AMES SALMONELLA TYPHIMURIUM, Strain/Indicator: TA1535, Metabolic Activation: RAT, LIVER, S-9, AROCLOR 1254 (10 OR 30%), Method: PREINCUBATION",inactive; negative
same,mutagenic call,"Test System: AMES SALMONELLA TYPHIMURIUM, Strain/Indicator: TA1537, Metabolic Activation: HAMSTER, LIVER, S-9, AROCLOR 1254 (10%), Method: PREINCUBATION",inactive; negative
same,mutagenic call,[4],inactive; negative
same,mutagenic call,"Test System: AMES SALMONELLA TYPHIMURIUM, Strain/Indicator: TA1537, Metabolic Activation: RAT, LIVER, S-9, AROCLOR 1254 (10%), Method: PREINCUBATION",inactive; negative
O=c1[nH]c(=O)n([C@H]2C[C@H](O)[C@@H](CO)O2)cc1Br,mutagenic call,"Test System: AMES SALMONELLA TYPHIMURIUM, Strain/Indicator: TA98, Metabolic Activation: NONE, Method: STANDARD PLATE",inactive; negative
same,mutagenic call,"Test System: AMES SALMONELLA TYPHIMURIUM, Strain/Indicator: TA98, Metabolic Activation: S-9, Method: STANDARD PLATE",inactive; negative
same,mutagenic call,"Test System: AMES SALMONELLA TYPHIMURIUM, Strain/Indicator: TA100, Metabolic Activation: NONE, Method: STANDARD PLATE",inactive; negative
same,mutagenic call,"Test System: AMES SALMONELLA TYPHIMURIUM, Strain/Indicator: TA100, Metabolic Activation: S-9, Method: STANDARD PLATE",inactive; negative
same,mutagenic call,"Test System: AMES SALMONELLA TYPHIMURIUM, Strain/Indicator: TA1537, Metabolic Activation: S-9, Method: STANDARD PLATE",inactive; negative
same,mutagenic call,"Test System: CHINESE HAMSTER V-79, Strain/Indicator: V-79/6-THIOGUANINE, Metabolic Activation: NONE, Method: STANDARD PLATE",active; positive
same,mutagenic call,"Test System: CHINESE HAMSTER V-79, Strain/Indicator: V-79/8-AZAGUANINE, Metabolic Activation: NONE, Method: STANDARD PLATE",active; positive
same,mutagenic call,"Test System: E. COLI, Strain/Indicator: WP2 (HCR), Metabolic Activation: NONE, Method: STANDARD PLATE",inactive; negative
same,mutagenic call,"Test System: E. COLI, Strain/Indicator: WP2 (HCR), Metabolic Activation: S-9, Method: STANDARD PLATE",inactive; negative
